Measured values as given in patent US10653693B2, “PRMT5 inhibitors and uses thereof” (Epizyme, Inc., priority 2014, dated 2020).
Where two headings read alike, the source gives them in different places.

Key:
[1] = test system: Z-138; assay: Long-term proliferation (LTP) assay; format: cell-based; conditions: Homo sapiens, Table 3, read-out: LTP IC50
Protocol: FIG. 4 illustrates a representative sample of a long-term proliferation assay performed in the mantle cell lymphoma cell line Z-138. Assays were performed in technical triplicates, reading cell viability over 14 days. Growth curves (top panel) were calculated in Excel. IC50 (bottom panel) and IC90 (not shown) values were calculated in GraphPad Prism using a non-linear regression analysis, fixing the top and bottom of the curves to 100 and 0%, respectively. The IC50 values in the Table are indicated in microM. [table]

[2] = test system: Granta-519; assay: Long-term proliferation (LTP) assay; format: cell-based; conditions: Homo sapiens, Table 3, read-out: LTP IC50
[3] = test system: Jeko-1; assay: Long-term proliferation (LTP) assay; format: cell-based; conditions: Homo sapiens, Table 3, read-out: LTP IC50
[4] = test system: Maver-1; assay: Long-term proliferation (LTP) assay; format: cell-based; conditions: Homo sapiens, Maver1, Table 3, read-out: LTP IC50
[5] = test system: Mino; assay: Long-term proliferation (LTP) assay; format: cell-based; conditions: Homo sapiens, Table 3, read-out: LTP IC50
[6] = test system: sDMA methylation in Granta-519 cells; assay: sDMA western blot, 10 kDa band to total SmD3; format: cell-based; conditions: Homo sapiens, Table 3, read-out: sDMA Western IC50
Protocol: (§1) The measurement of the 10 kDa band was used to calculate the methylation IC50 values. […] Concentration-dependent decreases in the 10 kDa band were observed on day 4 in all cell lines tested with representative western blots shown for Z-138 and Maver-1 cell lines (FIG. 1). Levels of the 10 kDa band from the western blots were quantified by densitometry and ratios of 10 kDa band (postulated to be SmD3me2s) to total SmD3 were calculated to determine the IC50s (Table 2, n=1 for all samples).

[7] = test system: sDMA methylation in Jeko-1 cells; assay: sDMA western blot, 10 kDa band to total SmD3; format: cell-based; conditions: Homo sapiens, Table 3, read-out: sDMA Western IC50
Protocol: as §1

[8] = test system: sDMA methylation in Maver-1 cells; assay: sDMA western blot, 10 kDa band to total SmD3; format: cell-based; conditions: Homo sapiens, Maver1, Table 3, read-out: sDMA Western IC50
Protocol: as §1

[9] = test system: sDMA methylation in Mino cells; assay: sDMA western blot, 10 kDa band to total SmD3; format: cell-based; conditions: Homo sapiens, Table 3, read-out: sDMA Western IC50
Protocol: as §1

[10] = test system: sDMA methylation in Z-138 cells; assay: sDMA western blot, 10 kDa band to total SmD3; format: cell-based; conditions: Homo sapiens, Table 3, read-out: sDMA Western IC50
Protocol: as §1

[11] = test system: Maver-1 cells; assay: Annexin-V staining (apoptosis); format: cell-based, Human; conditions: after 4 days of treatment
Protocol: (§2) The mechanism of cell killing was evaluated in the MCL cell lines, Z-138 and Mayer-1. Cells were treated at various time points with 2 nM, 20 nM, and 200 nM of Formula B. Apoptosis was assessed by measuring the percentage of Annexin-V positive cells and the assay was performed in triplicate.

[12] = test system: Z-138 cells; assay: Annexin-V staining (apoptosis); format: cell-based, Human; conditions: 200 nM
Protocol: as §2

[13] = test system: Z-138 xenograft model; assay: 21 day mantle cell lymphoma xenograft study: TGI and tumor methyl mark; format: in vivo; conditions: Z-138 xenograft; all doses tested; day 21
Protocol: Data presented in this example were determined after analysis of 21 day samples of mantle cell lymphoma tumors. Cmin PK samples were taken prior to the last dose on day 21. Tumors were excised, weighed and processed for methyl mark. Methyl mark reduction was measured in tumor samples and is shown as percent of vehicle control (POC). […] Tumor growth inhibition was determined using tumor volume reduction at day 21 expressed as a percent of POC. In vivo inhibition curves were also generated and IC50 values determined. Plasma levels from each group are averaged from 5 animals. […] The average body weight loss (BWL) in all groups was <6%. All doses tested show >50% TGI. […] The average BWL in all groups was <4%. The average BWL in all groups was <8%, except in the 100 mg/kg does group were 4 animals exceeded BWL of 15%.

[14] = test system: Maver-1 xenograft model; assay: as above; format: in vivo; conditions: all doses tested, day 21
Protocol: (§3) Data presented in this example were determined after analysis of 21 day samples of mantle cell lymphoma tumors. Cmin PK samples were taken prior to the last dose on day 21. Tumors were excised, weighed and processed for methyl mark. Methyl mark reduction was measured in tumor samples and is shown as percent of vehicle control (POC). Both SYM11 and sDMA Elisa were used to measure methyl mark and the data shown is averaged from 10 animals. Tumor growth inhibition was determined using tumor volume reduction at day 21 expressed as a percent of POC. In vivo inhibition curves were also generated and IC50 values determined. Plasma levels from each group are averaged from 5 animals. […] The average body weight loss (BWL) in all groups was <6%. All doses tested show >50% TGI. […] The average BWL in all groups was <4%. The average BWL in all groups was <8%, except in the 100 mg/kg does group were 4 animals exceeded BWL of 15%.

[15] = Body weight loss in Z-138 xenograft study; format: in vivo
Protocol: as §3

[16] = test system: MiaPaca-2 cells; assay: 2D-proliferation assay; format: cell-based; conditions: Homo sapiens
Protocol: (§4) Calculation of growth inhibitory concentrations (g IC50) at Days 4, 6 and 13 treated with Formula D. 2D-proliferation assays were also performed on pancreatic cell lines treated with Formula D. Treatment of both Miapaca-2 and Panc-1 cells with Formula D results in a decrease in cell proliferation, as shown in FIG. 19.

[17] = test system: Panc-1 cells; assay: 2D-proliferation assay; format: cell-based; conditions: Homo sapiens
Protocol: as §4

[18] = test system: Miapaca-2; assay: Foci formation and cellular morphology; format: cell-based
Protocol: (§5) FIG. 18 illustrates the effect of foci formation and cellular morphology in pancreatic cancer cell lines (Miapaca-2, Panc-1). The effects of treatment with Formula D on pancreatic cancer cell morphology was also tested.

[19] = test system: Panc-1; assay: Foci formation and cellular morphology; format: cell-based
Protocol: as §5

CC(=O)N1CCC(Nc2cc(C(=O)NC[C@H](O)CN3CCc4ccccc4C3)ncn2)CC1 [Formula A]
IC50 [1]: 5.7 nM
IC50 [2]: 4.7 nM
IC50 [3]: 11.3 nM
IC50 [4]: 32 nM
IC50 [5]: 106 nM
IC50 [6]: 2 nM
IC50 [7]: 8.7 nM
IC50 [8]: 0.3 nM
IC50 [9]: 7 nM
IC50 [10]: 14 nM
cells stained positive for Annexin-V [11]: 8%
increase in Annexin-V positive cells ([12]; after 4 days): 12%
increase in Annexin-V positive cells ([12]; after 6 days): 40%
Tumor growth inhibition (TGI) [13]: > 50%
Tumor growth inhibition (TGI) [14]: > 50%
body weight loss (BWL) exceeded by 4 animals ([15]; 100 mg/kg dose group): > 15%
average body weight loss (BWL) in all groups ([15]; 21 days): < 8%

O=C(COc1cccc2cccnc12)NC[C@@H](O)CN1CCc2ccccc2C1 [Formula D]
IC50 ([16]; MIA PaCa-2, 96 h, Day 4, read-out: growth inhibitory concentration (gIC50)): 349 nM
IC50 ([16]; MIA PaCa-2, 144 h, Day 6, read-out: growth inhibitory concentration (gIC50)): 269 nM
IC50 ([16]; MIA PaCa-2, 312 h, Day 13, read-out: growth inhibitory concentration (gIC50)): 929 nM
IC50 ([17]; 96 h, Day 4, read-out: growth inhibitory concentration (gIC50)): 1990 nM
IC50 ([17]; 144 h, Day 6, read-out: growth inhibitory concentration (gIC50)): 1240 nM
IC50 ([17]; 312 h, Day 13, read-out: growth inhibitory concentration (gIC50)): 3900 nM
effect on pancreatic cancer cell morphology / growth [18]: inhibition of cancer cell growth
effect on pancreatic cancer cell morphology / growth [19]: inhibition of cancer cell growth
